Results on 31 compounds are retold here after patent publication US20120094958A1, “QUINOLINES AS INHIBITORS OF FARNESYL PYROPHOSPHATE SYNTHASE” (NOVARTIS AG, priority 2008, published 2012).

The target of assay [1] is T1, FPPS (Farnesyl pyrophosphate synthase) (Homo sapiens, UniProt P14324).
T1 sequence (P14324 1-353 isoform P14324-2): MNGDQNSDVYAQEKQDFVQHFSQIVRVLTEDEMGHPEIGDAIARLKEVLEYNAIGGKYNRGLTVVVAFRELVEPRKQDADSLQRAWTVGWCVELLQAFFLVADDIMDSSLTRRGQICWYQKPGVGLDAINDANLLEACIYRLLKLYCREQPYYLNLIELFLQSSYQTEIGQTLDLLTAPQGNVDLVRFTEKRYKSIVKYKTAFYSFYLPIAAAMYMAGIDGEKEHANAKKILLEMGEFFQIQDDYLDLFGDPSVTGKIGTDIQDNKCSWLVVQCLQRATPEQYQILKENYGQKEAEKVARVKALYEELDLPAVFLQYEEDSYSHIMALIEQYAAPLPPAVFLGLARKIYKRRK
Kind of assay: FPPS Assay: LC-MS Method. It counts as biochemical. Particulars: GPP/IPP 5 μM each, reaction stopped after 10 minutes. Here is the method:
Recombinant human Farnesyl Pyrophosphate synthase (FPPS) was cloned, expressed and purified as previously described {J.-M. Rondeau et al., ChemMedChem 2006, 1, 267-271.} and stored as a 10 mg/mL stock solution in 25 mM Tris pH 7.4, 25 mM NaCl, 2 mM DTT (dithiothreitol). Geranyl pyrophosphate (GPP) was purchased from Anawa AG (Switzerland) and stored as a 1 mg/mL solution in 4 parts isopropanol:3 parts ammonia:1 part water. 1-[^3H]Isopentenyl pyrophosphate (IPP), 50 Ci/mmol; 1 Ci/mL, was purchased from Anawa AG and stored in ethanol:ammonia hydroxide 1:1 at −80 C. 1-[^3H] Farnesyl pyrophosphate triammonium salt, 100 Ci/mmol; 1 mCi/mL in 70% ethanol, 0.25 M ammonium bicarbonate was purchased from Anawa AG. Phospholipid-coated 384-well image FlashPlates™ were purchased from PerkinElmer. the assay buffer consisted of 20 mM HEPES pH7.4, 5 mM MgCl2 and 1 mM CaCl2.
Selected compounds are assayed in another FPPS based assay:
Into each well of a 384-well plate, 5 μL of compound in 20% DMSO/water is placed. 25 μL of GPP/IPP (5 μM each in assay buffer) is then added. The reaction is started with the addition of 10 μL of FPPS (diluted 1 to 10000 with assay buffer). After 10 minutes, the reaction is stopped by addition of 10 μL of 2 μM FSPP in 2% DMIPA/IPA. The reaction mixture is then extracted with 50 μL of n-pentanol using vortex mixing. After phase separation, 25 μL of the upper (n-pentanol) layer is transferred to a new 384-well plate and the pentanol is evaporated using a vacuum centrifuge. The dried residue is reconstituted in 50 μL of 0.1% DMIPA/water for analysis by the LC/MS/MS method.
LC/MS/MS analyses are performed on a Micromass Quattro Micro interfaced to an Agilent 1100 binary LC pump. Injection is performed by a Gilson 215/889 autosampler using an injection loop size of 2.5 μL. Chromatography is performed on a Waters 2.1×20 mm Xterra MS C18 5 μm guard column (P/N186000652) contained in a guard column holder (P/N 186000262) using 0.1% DMIPA/methanol as solvent A and 0.1% DMIPA/water as solvent B. The gradient is 5% A from 0.00 to 0.30 min, 50% A at 0.31 min, 80% A at 1.00 min, and 5% A from 1.01 to 2.00 min. The flow rate is 0.3 mL/min and the flow is diverted to waste from 0.00 to 0.50 min and again from 1.20 to 2.00 min.
The MRM transitions monitored are 381^−>79^− for FPP and 397^−>159^− for FSPP at a collision energy of 22 eV and a collision cell pressure of 2.1×10^−3 mbar of Ar. The dwell time per transition is 400 msec with a span of 0.4 Da. The interchannel delay and interscan delay are both 0.02 sec. Other mass spectrometric operating parameters are: capillary, 2.0 kV; cone, 35 V; extractor, 2.0 V, source temp., 100° C.; desolvation gas temp., 250° C.; desolvation gas flow, 650 L/hr; cone gas flow, 25 L/hr; multiplier, 650 V.
The total cycle time per sample is 2.5 minutes. Since the analysis is formatted for 384-well plates, a plate is analyzed in 16 hours. The chromatograms are processed using Quanlynx software, which divides the area of individual FPP peaks by the area of the FSPP peaks (internal standard). The resulting values are reported as the relative response for the corresponding sample well.

Assay [2] addresses T2, Recombinant human Farnesyl Pyrophosphate synthase (FPPS) (Homo sapiens, UniProt P14324).
T2 construct: made in house
T2 sequence (P14324 1-353 isoform P14324-2): T1 sequence (P14324 1-353 isoform P14324-2)
As to the kind of experiment: FPPS enzyme assay, scintillation proximity (FlashPlate). It counts as biochemical.

Setting [3] is: FlashPlate SPA, GPP 150 nM, [3H]-IPP 150 nM, FPPS 500 pM, 45 minutes at room temperature, highest concentration tested 100 μM, read-out: FPPS IC50.

Read-outs that look alike come from different tables or passages of the source.

As for `O=P(O)(O)c1ccc2cc(I)cc(-c3cccc4ccccc34)c2n1` [Example 21, (6-Iodo-8-naphthalen-1-yl-quinolin-2-yl)-phosphonic acid], the concentration for half-maximal inhibition (IC50) in assay [1] came to 0.507 µM. For the compound `O=P(O)(O)Cc1ccc2cccc(-c3cccc4ccccc34)c2n1` [Example 11, (8-Naphthalen-1-yl-quinolin-2-ylmethyl)-phosphonic acid], the concentration for half-maximal inhibition (IC50) in assay [2] (setting [3]) was determined as 7.9 µM. Still for that read-out and setting: the result for `O=P(O)(O)/C=C/c1ccc2cccc(-c3cccc4ccccc34)c2n1` [Example 40, [(E)-2-(8-Naphthalen-1-yl-quinolin-2-yl)-vinyl]-phosphonic acid] reads 0.007 µM. For `Cc1cccc2c(-c3cccc4ccc(C(=O)O)nc34)cccc12` [Example 38, 8-(5-Methyl-naphthalen-1-yl)-quinoline-2-carboxylic acid], the concentration for half-maximal inhibition (IC50) in assay [1] was found to be 0.217 µM. On to `O=C(O)c1ccc2cc(-c3ccc[nH]3)cc(-c3cccc4ccccc34)c2n1` [Example 36, 8-Naphthalen-1-yl-6-pyrrol-2-yl-quinoline-2-carboxylic acid], for which the concentration for half-maximal inhibition (IC50) in assay [2] (setting [3]) is 0.14 µM. As for `O=C(O)c1ccc2cccc(-c3cccc4ncccc34)c2n1` [Example 2.c.ii], the IC50 in assay [2] (setting [3]) is 2.7 µM. In assay [1], `O=P(O)(O)c1ccc2cc(-c3ccc4c(c3)OCO4)cc(-c3cccc4ccccc34)c2n1` [Example 27f.ii] had an IC50 of 0.977 µM. Turning to `O=C(O)c1ccc2cccc(-c3cccc4[nH]c(=O)ccc34)c2n1` [Example 2.g.ii], the half-inhibitory concentration (IC50) in assay [2] (setting [3]) is greater than 100 µM. Take `O=C(OCc1ccccc1)c1ccc2cccc(-c3cccc4[nH]c(=O)ccc34)c2n1` [Example 2.g.i]: the concentration for half-maximal inhibition (IC50) in assay [2] (setting [3]) worked out at 19.7 µM. Compound `CS(=O)(=O)N(c1cc(-c2cccc3ccccc23)c2nc(/C=C/P(=O)(O)O)ccc2c1)S(C)(=O)=O` [Example 47, {(E)-2-[6-(di-methanesulfonyl)amino-8-naphthalen-1-yl-quinolin-2-yl]-vinyl}-phosphonic acid] displayed an IC50 in assay [1] of 0.204 µM. For `CC(=O)Nc1cc(-c2cccc3ccccc23)c2nc(-c3nn[nH]n3)ccc2c1` [Example 51, N-[8-Naphthalen-1-yl-2-(2H-tetrazol-5-yl)-quinolin-6-yl]-acetamide], the half-maximal inhibitory concentration (IC50) in assay [1] is 0.048 µM. On to `O=P(O)(O)CNc1ccc2cccc(-c3cccc4ccccc34)c2n1` [Example 5, [(8-Naphthalen-1-yl-quinolin-2-ylamino)-methyl]-phosphonic acid], for which the half-maximal inhibitory concentration (IC50) in assay [2] (setting [3]) is 4.1 µM. In the case of `O=[N+]([O-])c1cc(-c2cccc3ccccc23)c2nc(NCP(=O)(O)O)ccc2c1` [Example 6, [(6-Nitro-8-naphthalen-1-yl-quinolin-2-ylamino)-methyl]-phosphonic acid], in assay [2] (setting [3]), the 50% inhibitory concentration (IC50) worked out at 14 µM. As for “rac. 2-[(amino-sulfonyl)-amino]-3-[(8-naphthalen-1-yl-quinoline-2-carbonyl)-amino]-propionic acid [Example 15.b]”, the IC50 in assay [2] (setting [3]) turned out to be 54.3 µM. Same read-out and setting: the figure for `O=C(O)c1ccc2cc(Cl)cc(-c3cccc4ccccc34)c2n1` [Example 54, 6-Chloro-8-naphthalen-1-yl-quinoline-2-carboxylic acid] is 0.34 µM; for `O=C(OCc1ccccc1)c1ccc2cccc(-c3cccc4c3CCCC4=O)c2n1` [Example 2.d.i] it is greater than 10 µM. For the compound `COC(=O)C(CNC(=O)c1ccc2cccc(-c3cccc4ccccc34)c2n1)NS(=O)(=O)NC(=O)OC(C)(C)C` (racemic) [Example 13, rac. 2-[(tert-Butoxycarbonylamino-sulfonyl)-amino]-3-[(8-naphthalen-1-yl-quinoline-2-carbonyl)-amino]-propionic acid methyl ester], the IC50 in assay [2] (setting [3]) is 13.5 µM.

On to `O=C(NCC1NS(=O)(=O)NC1=O)c1ccc2cccc(-c3cccc4ccccc34)c2n1` (racemic) [Example 15.a, rac. 8-Naphthalen-1-yl-quinoline-2-carboxylic acid (1,1,4-trioxo-1lambda*6*-[1,2,5]thiadiazolidin-3-ylmethyl)-amide], for which the IC50 in assay [2] (setting [3]) is greater than 100 µM. Regarding `O=P(O)(O)CNc1ccc2cc(-c3cc[nH]c3)cc(-c3cccc4ccccc34)c2n1` [Example 9, {[8-Naphthalen-1-yl-6-(1H-pyrrol-3-yl)-quinolin-2-ylamino]-methyl}-phosphonic acid], the IC50 in assay [2] (setting [3]) turned out to be 21.5 µM. Same read-out and setting: the figure for `O=P(O)(O)CNCc1ccc2cccc(-c3cccc4ccccc34)c2n1` [Example 12, {[(8-Naphthalen-1-yl-quinolin-2-ylmethyl)-amino]-methyl}-phosphonic acid] is greater than 100 µM. Take `COC(=O)C(CNC(=O)c1ccc2cccc(-c3cccc4ccccc34)c2n1)NS(N)(=O)=O` (racemic) [Example 14, rac. 2-[(Amino-sulfonyl)-amino]-3-[(8-naphthalen-1-yl-quinoline-2-carbonyl)amino]-propionic acid methyl ester]: the half-maximal inhibitory concentration (IC50) in assay [2] (setting [3]) was 39.7 µM. Consider `O=C(OCc1ccccc1)c1ccc2cccc(-c3cccc4cnccc34)c2n1` [Example 2.b.i], for which the half-inhibitory concentration (IC50) in assay [2] (setting [3]) is greater than 10 µM.

Turning to `O=C(O)c1ccc2cccc(-c3cccc4[nH]ccc34)c2n1` [Example 2.a.ii], the IC50 in assay [2] stood at 6.5 µM. As to `O=P(O)(O)CCc1ccc2cccc(-c3cccc4ccccc34)c2n1` [Example 41, [2-(8-Naphthalen-1-yl-quinolin-2-yl)-ethyl]-phosphonic acid], in assay [2] (setting [3]), the IC50 is 2.3 µM. With `O=C(O)c1ccc2cccc(-c3cccc4ccccc34)c2n1` [Example 1, 8-Naphthalen-1-quinoline-2-carboxylic acid], the concentration for half-maximal inhibition (IC50) in assay [2] (setting [3]) was 0.52 µM. On to `O=C(NCP(=O)(O)O)c1ccc2cccc(-c3cccc4ccccc34)c2n1` [Example 3, {[(8-Naphthalen-1-yl-quinoline-2-carbonyl)-amino]-methyl}-phosphonic acid], for which, in assay [2] (setting [3]), the IC50 was found to be 40.3 µM.

Consider `CCOP(=O)(CNc1ccc2cc(-c3ccn([Si](C(C)C)(C(C)C)C(C)C)c3)cc(-c3cccc4ccccc34)c2n1)OCC` [Example 9.1, {[8-Naphthalen-1-yl-6-(1-triisopropylsilanyl-1H-pyrrol-3-yl)-quinolin-2-ylamino]-methyl}-phosphonic acid diethyl ester], for which, in assay [2] (setting [3]), the IC50 was greater than 100 µM. As for `CCOP(=O)(Cc1ccc2cccc(-c3cccc4ccccc34)c2n1)OCC` [Example 11.6, (8-Naphthalen-1-yl-quinolin-2-ylmethyl)-phosphonic acid diethyl ester], the concentration for half-maximal inhibition (IC50) in assay [2] was greater than 100 µM. As for `O=P(O)(O)CNc1ccc2cc(-c3cccnc3)cc(-c3cccc4ccccc34)c2n1` [Example 10, [(8-Naphthalen-1-yl-6-pyridin-3-yl-quinolin-2-ylamino)-methyl]-phosphonic acid], the IC50 in assay [2] (setting [3]) stood at 2.8 µM. Same read-out and setting: the figure for `CCOP(=O)(CNc1ccc2cc(-c3cccnc3)cc(-c3cccc4ccccc34)c2n1)OCC` [Example 10.1, [(8-Naphthalen-1-yl-6-pyridin-3-yl-quinolin-2-ylamino)-methyl]-phosphonic acid diethyl ester] is 2.8 µM; for `O=C(OCc1ccccc1)c1ccc2cccc(-c3cccc4ncccc34)c2n1` [Example 2.c.i] it is greater than 10 µM.
